What was measured:
[1] = tested on: Clostridium butyricum JCM 1391; assay type: cell-based; conditions: 0.5 w/v % saccharide in PYF broth, 37° C., 96 hours; free of sugar: -
[2] = tested on: Peptostreptococcus prevotii ATCC 9321; test: Assimilation test by intestinal microorganism; assay type: cell-based; conditions: 0.5 w/v % saccharide in PYF broth, 37° C., 96 hours; free of sugar: -
[3] = Acute toxicity test; assay type: in vivo; conditions: oral, mice; for LD50: mouse, in vivo
Excerpt: As a result, no mouse died even when administered with a highest possible dose. This means that the LD50 is 50 g/kg mouse or more and concludes that it is extremely low in toxicity.

[4] = biological target: T1, Pancreatic juice amylase (Homo sapiens, UniProt P04746); test: in vitro
T1 sequence (P04746 16-511): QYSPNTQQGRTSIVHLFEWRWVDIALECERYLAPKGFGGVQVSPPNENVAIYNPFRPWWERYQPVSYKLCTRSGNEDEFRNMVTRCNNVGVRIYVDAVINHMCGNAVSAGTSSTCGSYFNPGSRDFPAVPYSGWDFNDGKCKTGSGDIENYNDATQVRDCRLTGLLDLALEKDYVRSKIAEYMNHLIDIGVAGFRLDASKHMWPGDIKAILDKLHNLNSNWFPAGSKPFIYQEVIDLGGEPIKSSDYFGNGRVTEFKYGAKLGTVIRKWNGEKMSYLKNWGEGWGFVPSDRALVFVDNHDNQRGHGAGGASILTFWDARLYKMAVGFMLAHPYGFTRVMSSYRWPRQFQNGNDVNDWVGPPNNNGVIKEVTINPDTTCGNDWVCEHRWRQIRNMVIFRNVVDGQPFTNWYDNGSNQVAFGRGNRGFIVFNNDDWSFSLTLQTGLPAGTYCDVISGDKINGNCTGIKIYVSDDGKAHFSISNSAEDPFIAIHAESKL

[5] = tested on: Streptococcus sobrinus ATCC 27351; test: Acid formation by dental caries-inducing microorganisms; conditions: for pH at each fermentation time (min): living wet cells, 0.02M saccharide, Stephen buffer pH 7.0, 37° C.
[6] = tested on: Bifidobacterium adolescentis JCM 1275; test: Assimilation test by intestinal microorganism; assay type: cell-based; conditions: 0.5 w/v % saccharide in PYF broth, 37° C., 96 hours; free of sugar: -
[7] = tested on: Bifidobacterium animalis JCM 1190; test: Assimilation test by intestinal microorganism; assay type: cell-based; conditions: 0.5 w/v % saccharide in PYF broth, 37° C., 96 hours; free of sugar: -
[8] = tested on: Bifidobacterium bifidum JCM 1255; test: Assimilation test by intestinal microorganism; assay type: cell-based; conditions: 0.5 w/v % saccharide in PYF broth, 37° C., 96 hours; free of sugar: -
[9] = tested on: Bifidobacterium breve JCM 1192; test: Assimilation test by intestinal microorganism; assay type: cell-based; conditions: 0.5 w/v % saccharide in PYF broth, 37° C., 96 hours; free of sugar: -
[10] = tested on: Bifidobacterium infantis JCM 1222; test: Assimilation test by intestinal microorganism; assay type: cell-based; conditions: 0.5 w/v % saccharide in PYF broth, 37° C., 96 hours; free of sugar: -
[11] = tested on: Bifidobacterium longum JCM 1217; test: Assimilation test by intestinal microorganism; assay type: cell-based; conditions: 0.5 w/v % saccharide in PYF broth, 37° C., 96 hours; free of sugar: -
[12] = tested on: Lactobacillus fermentum IFO 3959; test: Assimilation test by intestinal microorganism; assay type: cell-based; conditions: 0.5 w/v % saccharide in PYF broth, 37° C., 96 hours; free of sugar: -
[13] = tested on: Lactobacillus plantarum IFO 3070; test: Assimilation test by intestinal microorganism; assay type: cell-based; conditions: 0.5 w/v % saccharide in PYF broth, 37° C., 96 hours; free of sugar: -
[14] = tested on: Eubacterium aerofaciens ATCC 25986; test: Assimilation test by intestinal microorganism; assay type: cell-based; conditions: 0.5 w/v % saccharide in PYF broth, 37° C., 96 hours; free of sugar: -
[15] = tested on: Bacteroides distasonis JCM 5825; test: Assimilation test by intestinal microorganism; assay type: cell-based; conditions: 0.5 w/v % saccharide in PYF broth, 37° C., 96 hours; free of sugar: -
[16] = tested on: Bacteroides vulgatus JCM 5826; test: Assimilation test by intestinal microorganism; assay type: cell-based; conditions: 0.5 w/v % saccharide in PYF broth, 37° C., 96 hours; free of sugar: -
[17] = tested on: Bacteroides uniformis JCM 5828; test: Assimilation test by intestinal microorganism; assay type: cell-based; conditions: 0.5 w/v % saccharide in PYF broth, 37° C., 96 hours; free of sugar: -
[18] = tested on: Clostridium perfringens JCM 3816; assay type: cell-based; conditions: 0.5 w/v % saccharide in PYF broth, 37° C., 96 hours; free of sugar: -
[19] = tested on: Clostridium ramosum JCM 1298; test: Assimilation test by intestinal microorganism; assay type: cell-based; conditions: 0.5 w/v % saccharide in PYF broth, 37° C., 96 hours; free of sugar: -
[20] = tested on: Streptococcus faecalis IAM 10065; test: Assimilation test by intestinal microorganism; assay type: cell-based; conditions: 0.5 w/v % saccharide in PYF broth, 37° C., 96 hours; free of sugar: -
[21] = tested on: Escherichia coli IFO 3301; test: Assimilation test by intestinal microorganism; assay type: cell-based; conditions: 0.5 w/v % saccharide in PYF broth, 37° C., 96 hours; free of sugar: -
[22] = biological target: T2, Salivary amylase (Homo sapiens, UniProt P0DUB6); test: in vitro
T2 sequence (P0DUB6 16-511): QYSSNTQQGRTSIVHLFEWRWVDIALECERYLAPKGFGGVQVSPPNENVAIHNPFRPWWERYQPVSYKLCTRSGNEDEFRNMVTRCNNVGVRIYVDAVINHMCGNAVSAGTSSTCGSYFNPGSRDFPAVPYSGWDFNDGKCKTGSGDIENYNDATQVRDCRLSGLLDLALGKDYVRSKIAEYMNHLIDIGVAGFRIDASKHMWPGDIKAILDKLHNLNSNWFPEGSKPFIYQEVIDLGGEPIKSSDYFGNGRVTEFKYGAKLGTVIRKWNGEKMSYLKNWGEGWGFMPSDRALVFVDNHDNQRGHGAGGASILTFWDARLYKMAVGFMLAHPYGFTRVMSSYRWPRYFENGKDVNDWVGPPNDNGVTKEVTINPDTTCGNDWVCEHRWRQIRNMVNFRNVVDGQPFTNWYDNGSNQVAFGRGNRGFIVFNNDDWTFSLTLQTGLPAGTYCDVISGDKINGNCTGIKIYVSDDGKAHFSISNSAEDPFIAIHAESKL

[23] = in vitro; conditions: gastric acid
[24] = Maillard reaction (coloration with glycine); assay type: physicochemical; conditions: 10 w/v % saccharide, one w/v % glycine, 50 mM phosphate buffer pH 7.0, 100° C. for 90 min, 1-cm light-path cell
[25] = Solubility in solvent

## OC[C@H]1O[C@H](OC[C@H]2O[C@H](OC[C@H]3O[C@H](O[C@H]4O[C@H](CO)[C@@H](O)[C@H](O)[C@H]4O)[C@H](O)[C@@H](O)[C@@H]3O)[C@H](O)[C@@H](O)[C@@H]2O)[C@H](O)[C@@H](O)[C@@H]1O [α-Isomaltotriosyl α-glucoside, O-α-D-glucopyranosyl-(1→6)-O-α-D-glucopyranosyl-(1→6) α-D-glucopyranosyl α-D-glucopyranoside]
[1]
  Judgement of assimilation (turbidity at 750 nm, ×5): +++ (0.3 or higher)
[2]
  Judgement of assimilation (turbidity at 750 nm, ×5): ± (0.1 or higher but less than 0.15)
[3]
  LD50: ≥ 50000 mg/kg
[4]
  metabolised: 0.5%

## OC[C@H]1O[C@@](CO)(O[C@H]2O[C@H](CO)[C@@H](O)[C@H](O)[C@H]2O)[C@@H](O)[C@@H]1O [Sucrose, reference compound]
[5]
  pH reduction / acid fermentation, in words: rapid
[5]; 0 min
  pH at each fermentation time (min): 7.0
[5]; 5 min
  pH at each fermentation time (min): 4.3
[5]; 15 min
  pH at each fermentation time (min): 4.1
[5]; 30 min
  pH at each fermentation time (min): 4.0
[5]; 60 min
  pH at each fermentation time (min): 4.0
[5]; 90 min
  pH at each fermentation time (min): 4.0

## O=C[C@H](O)[C@@H](O)[C@H](O)[C@H](O)CO [glucose, reference compound]
[6]
  Judgement of assimilation (turbidity at 750 nm, ×5): +++ (0.3 or higher)
[7]
  Judgement of assimilation (turbidity at 750 nm, ×5): +++ (0.3 or higher)
[8]
  Judgement of assimilation (turbidity at 750 nm, ×5): ++ (0.2 or higher but less than 0.3)
[9]
  Judgement of assimilation (turbidity at 750 nm, ×5): ++ (0.2 or higher but less than 0.3)
[10]
  Judgement of assimilation (turbidity at 750 nm, ×5): ++ (0.2 or higher but less than 0.3)
[11]
  Judgement of assimilation (turbidity at 750 nm, ×5): +++ (0.3 or higher)
[12]
  Judgement of assimilation (turbidity at 750 nm, ×5): ++ (0.2 or higher but less than 0.3)
[13]
  Judgement of assimilation (turbidity at 750 nm, ×5): ++ (0.2 or higher but less than 0.3)
[14]
  Judgement of assimilation (turbidity at 750 nm, ×5): +++ (0.3 or higher)
[15]
  Judgement of assimilation (turbidity at 750 nm, ×5): ++ (0.2 or higher but less than 0.3)
[16]
  Judgement of assimilation (turbidity at 750 nm, ×5): + (0.15 or higher but less than 0.2)
[17]
  Judgement of assimilation (turbidity at 750 nm, ×5): ++ (0.2 or higher but less than 0.3)
[1]
  Judgement of assimilation (turbidity at 750 nm, ×5): +++ (0.3 or higher)
[18]
  Judgement of assimilation (turbidity at 750 nm, ×5): +++ (0.3 or higher)
[19]
  Judgement of assimilation (turbidity at 750 nm, ×5): + (0.15 or higher but less than 0.2)
[20]
  Judgement of assimilation (turbidity at 750 nm, ×5): ++ (0.2 or higher but less than 0.3)
[2]
  Judgement of assimilation (turbidity at 750 nm, ×5): + (0.15 or higher but less than 0.2)
[21]
  Judgement of assimilation (turbidity at 750 nm, ×5): + (0.15 or higher but less than 0.2)

## OC[C@H]1O[C@H](O[C@H]2[C@H](O)[C@@H](O)C(O)O[C@@H]2CO)[C@H](O)[C@@H](O)[C@@H]1O (mixture of isomers) [Maltose, reference compound]
[22]
  metabolised: 0%
[23]
  degraded: 0%
[4]
  metabolised: 0.2%

## OC[C@H]1O[C@H](OC[C@H]2O[C@H](OC[C@H]3OC(O)[C@H](O)[C@@H](O)[C@@H]3O)[C@H](O)[C@@H](O)[C@@H]2O)[C@H](O)[C@@H](O)[C@@H]1O (stereo partly drawn) [Isomaltotriose, isomaltotriose, reference compound]
[24]
  Coloration degree (at a wavelength of 480 nm): 0.642

## OC[C@H]1O[C@H](OC[C@H]2O[C@H](OC[C@H]3O[C@H](OC[C@H]4OC(O)[C@H](O)[C@@H](O)[C@@H]4O)[C@H](O)[C@@H](O)[C@@H]3O)[C@H](O)[C@@H](O)[C@@H]2O)[C@H](O)[C@@H](O)[C@@H]1O (stereo partly drawn) [Isomaltotetraose, isomaltotetraose, reference compound]
[24]
  Coloration degree (at a wavelength of 480 nm): 0.495

## OC[C@H]1O[C@H](OC[C@H]2O[C@H](O[C@H]3O[C@H](CO[C@H]4O[C@H](CO)[C@@H](O)[C@H](O)[C@H]4O)[C@@H](O)[C@H](O)[C@H]3O)[C@H](O)[C@@H](O)[C@@H]2O)[C@H](O)[C@@H](O)[C@@H]1O [α-Isomaltosyl α-isomaltoside, O-α-D-glucopyranosyl -(1→6)-α-D-glucopyranosyl-O-α-D-glucopyranosyl-(1→6) -α-D-glucopyranoside]
[11]
  Judgement of assimilation (turbidity at 750 nm, ×5): +++ (0.3 or higher)
[1]
  Judgement of assimilation (turbidity at 750 nm, ×5): +++ (0.3 or higher)
[18]
  Judgement of assimilation (turbidity at 750 nm, ×5): - (Less than 0.1)
[2]
  Judgement of assimilation (turbidity at 750 nm, ×5): ± (0.1 or higher but less than 0.15)
[3]
  LD50: ≥ 50000 mg/kg
[4]
  metabolised: 0.3%
[25]; chloroform and ethyl acetate
  Solubility in solvent: Insoluble
[25]; methanol and ethanol
  Solubility in solvent: Hardly soluble

## OC[C@H]1O[C@H](OC[C@H]2O[C@H](O[C@H]3O[C@H](CO)[C@@H](O)[C@H](O)[C@H]3O)[C@H](O)[C@@H](O)[C@@H]2O)[C@H](O)[C@@H](O)[C@@H]1O [O-α-D-glucopyranosyl -(1→6)-α-D-glucopyranosyl α-D-glucopyranoside]
[11]
  Judgement of assimilation (turbidity at 750 nm, ×5): +++ (0.3 or higher)
[18]
  Judgement of assimilation (turbidity at 750 nm, ×5): + (0.15 or higher but less than 0.2)
[2]
  Judgement of assimilation (turbidity at 750 nm, ×5): ± (0.1 or higher but less than 0.15)
[3]
  LD50: ≥ 50000 mg/kg
  Mortality at a highest possible dose: no mouse died
[4]
  metabolised: 0.5%
